Paper PMC10154249, “Unique progerin C-terminal peptide ameliorates Hutchinson–Gilford progeria syndrome phenotype by rescuing BUBR1” (Nature Aging, 2023)
Values joined by “and” are separate entries in the source; they are usually repeats but may differ in a detail not shown here. Equal values may be shown once.

Columns and labels:
PTBP1–BUBR1 mRNA 3′-UTR = assay: RIP assay of PTBP1 and BUBR1 mRNA 3′-UTR in HEK-293T cells; format: cell-based; details: for PTBP1 enrichment on BUBR1-3'UTR (2-ΔΔCt): Fig. 4n, PTBP1+progerin+UPCP, P=0.0491 vs PTBP1+progerin
Experimental: RIP and RNA pulldown assays were performed as previously described. The RIP experiment was carried out using the EZ-Magna RIP Kit (Millipore, catalog no. 17-701). The coprecipitated RNAs were extracted through Trizol reagent and detected by RT-PCR. The primer sequences for PCR, synthesized by Comate Bioscience, were as follows:
BUBR1-3′UTR_fwd (5′-[…]-3′) and BUBR1-3′UTR_rev (5′- […]-3′).

[1] = system: p53, IL-6 and p21 in HGADFN003 cells; assay: Western blot of p53, IL-6 and p21 in HGADFN003 cells; format: cell-based, human
Experimental: Western blot was performed as previously described. Cells were lysed in 1× Laemmli sample buffer after washing twice in cold PBS without calcium and magnesium. Protein concentrations were determined using the bicinchoninic acid (BCA) protein assay. Protein lysates were subjected to SDS–PAGE, transferred to 0.45-μm pore size hydrophobic PVDF transfer membrane (Merck Millipore), detected with the appropriate primary antibodies coupled with horseradish peroxidase-conjugated corresponding secondary antibodies, and visualized using enhanced chemiluminescence ECL reagent (GE Healthcare). The Tanon 5500 high-definition low-illumination CCD system (Tanon FLI Capture v.1.02) was used to capture chemiluminescent signals.

IMR90 cells = assay: Ki67 immunofluorescence of IMR90 cells; format: cell-based, human
Experimental: Immunofluorescence was performed as described previously. Cells were plated on cover slips in 12-well plates, left overnight before the treatment. Cells were fixed in 1% formaldehyde in culture medium for 10 min at 37 °C and permeabilized with 0.2% Triton X-100 in PBS for 10 min at room temperature. Cells were washed twice in PBS and blocked for 1 h with 5% BSA in PBS and then incubated with primary antibodies at 4 °C overnight, washed three times in PBS and incubated with secondary antibodies for 1 h at room temperature. Cell nuclei were counterstained with a 500 nM concentration of 4,6-diamidino-2-phenylindole (DAPI) (Sigma). Images were acquired by a fluorescence microscope (OLYMPUS FV-1000, Carl Zeiss LSM880 or Leica DMi8) and analyzed with software NIS-Elements AR v.5.0.1 (Nikon), FLUOVIEW v.4.2b (OLYMPUS), ZEN v.2.3 SP1 (Carl Zeiss) and Leica Application Suite X v.3.6.0.24 (Leica). Cells were quantified by investigators who were blinded to the identity of the analyzed cell.

[2] = system: skin of Lmna^G609G/G609G mice; assay: Histology of skin (epidermis, subcutaneous fat layers); format: in vivo, mouse; details: 13 weeks; for subcutaneous fat layers, Mean / subcutaneous fat layers: 20 mg kg^–1 i.p.
Experimental: (§1) For UPCP injection, 14-day-old Lmna^G609G/G609G mice were injected intraperitoneally with either PBS or UPCP (20 mg kg^–1, every other day) and wild-type mice were injected with PBS. […] Bodyweight and lifespan were monitored after UPCP treatment. The survival rate was analyzed by the Kaplan–Meier method. We only included mice that were of sufficient bodyweight at the start of the experiment, typically at least 80% of the average littermate weight of the same sex and genotype. All animals meeting criteria for inclusion were then divided randomly into three groups according to genotype (Lmna^+/+, Lmna^G609G/G609G-Mock and Lmna^G609G/G609G-UPCP).
(§2) For histological analyses, mice of the indicated genotypes were perfused with PBS, then with 4% paraformaldehyde (PFA). Whole organs were incubated in 4% PFA at 4 °C for 16 h. All samples were paraffin embedded and sectioning by Servicebio. Subsequently, the tissues were deparaffinized and rehydrated before hematoxylin-eosin (HE) or Masson staining or immunohistochemistry (IHC). HE staining was performed using an HE Kit (Absin, catalog no. abs9217), and Masson staining was performed using Masson’s Trichrome Stain Kit (Absin, catalog no. abs9347) according to the manufacturer’s instructions. The thickness of the layers or the areas of fibrosis in the tissues were calculated using ImageJ software by a blinded investigator. For IHC, the sections were completed by the Servicebio. The images were acquired by a microscope (Leica DMi8) and analyzed with Leica Application Suite X v.3.6.0.24 (Leica). For BubR1, cytoplasmic staining in cells was scored on the intensity of staining and the proportion of positive cells by a blinded investigator. The intensity of the staining was graded as 0 (negative, no color), 1 (low positive, light yellow), 2 (positive, brown yellow) or 3 (high positive, brown), and the number of positive cells was graded as 0 (<5%), 1 (5–25%), 2 (25–50%), 3 (51–75%) or 4 (>75%). The final score was defined as staining number score multiplied by staining color score. For lamin B1, p21 or IL-6, the proportion of positive cells was used to quantify the expression of protein in tissues by a blinded investigator.

[3] = system: BUBR1 binding to BUB3 and CDC20; assay: CoIP of BUBR1 and SAC proteins BUB3 and CDC20 in HEK-293T cells; format: cell-based; details: UPCP 18 μM, nocodazole 200 ng ml^–1
Experimental: Detailed descriptions of CoIP were described previously[55],[56]. Cells were harvested and washed three times in cold PBS, then lysed in CoIP buffer (25 mM Tris-HCl (pH 7.5), 150 mM KCl, 5 mM EDTA, and 0.5% NP-40) plus protease inhibitor cocktail tablet (Roche). Incubate on ice and shock lysates on the vortex shaker 15 times for 30 s each. Microcentrifuge in 12,000g for 15 min at 4 °C, collect the supernatant, and incubate with 3 μg primary antibodies with gentle shaking overnight at 4 °C, followed by adding 20–40 μl Pure Proteome Protein A/G Mix Magnetic Beads (Millipore, catalog no. […]02) for 3 h. Wash the beads three times with 1 ml CoIP buffer for 8 min each, resuspend in 50 μl 1× loading buffer, and incubate at 100 °C for 8 min. Throw beads away and analyze by immunoblotting.

[4] = system: heart of Lmna^G609G/G609G mice; assay: Masson staining of heart (fibrosis); format: in vivo, mouse; details: 13 weeks
Experimental: as §1, §2

[5] = 20 mg kg^–1 i.p. every other day

Q: With “H-YGRKKRRQRRRYNLRSRTVLCGTCGQPADKASASGSGAQSPQNCSIM-OH (cysteines drawn unpaired) [UPCP, unique progerin C-terminal peptide]” as the substance, how does the “PTBP1 enrichment on BUBR1-3'UTR (2-ΔΔCt)” value (PTBP1–BUBR1 mRNA 3′-UTR; replicate 1) read?
A: The value was 9.032.

Q: And the “PTBP1 enrichment on BUBR1-3'UTR (2-ΔΔCt)” value (PTBP1–BUBR1 mRNA 3′-UTR; replicate 2)?
A: The value was 10.1759.

Q: And the “PTBP1 enrichment on BUBR1-3'UTR (2-ΔΔCt)” value (PTBP1–BUBR1 mRNA 3′-UTR; replicate 3)?
A: The value was 11.8972.

Q: What about the “binding of PTBP1 to BUBR1 mRNA 3ʹ-UTR” value (PTBP1–BUBR1 mRNA 3′-UTR; RIP and RNA pulldown, HEK-293T with or without UPCP) of the same substance?
A: Its value is “promoted PTBP1 to bind”.

Q: And the “level of p53, IL-6 and p21” value [1]?
A: The value was “decreased level of p53, IL-6 and p21”.

Q: And the Ki67 positive cells (IMR90 cells; IMR90, replicate 1)?
A: Its Ki67 positive cells is 73%.

Q: What about the Ki67 positive cells (IMR90 cells; IMR90, replicate 2) of the same substance?
A: The Ki67 positive cells was 84%.

Q: What about the Ki67 positive cells (IMR90 cells; IMR90, replicate 3) of the same substance?
A: Its Ki67 positive cells is 87%.

Q: What about the dermal fat loss [2, 5] of the same substance?
A: Its dermal fat loss is “improved”.

Q: And the epidermal thinning [2, 5]?
A: The epidermal thinning was “improved”.

Q: What about the “subcutaneous fat layers, Mean” value ([2]; sample 1, mean of 3 measurements) of the same substance?
A: The value was 0.2193 mm.

Q: What about the subcutaneous fat layers ([2]; sample 1, measurement 1) of the same substance?
A: The subcutaneous fat layers was 0.2 mm.

Q: What about the subcutaneous fat layers ([2]; sample 1, measurement 2) of the same substance?
A: The subcutaneous fat layers was 0.243 mm.

Q: And the subcutaneous fat layers ([2]; sample 1, measurement 3)?
A: The subcutaneous fat layers was 0.215 mm.

Q: What about the “subcutaneous fat layers, Mean” value ([2]; sample 2, mean of 3 measurements) of the same substance?
A: Its value is 0.1593 mm.

Q: And the subcutaneous fat layers ([2]; sample 2, measurement 1)?
A: Its subcutaneous fat layers is 0.146 mm.

Q: And the subcutaneous fat layers ([2]; sample 2, measurement 2)?
A: The subcutaneous fat layers was 0.185 mm.

Q: What about the subcutaneous fat layers ([2]; sample 2, measurement 3) of the same substance?
A: Its subcutaneous fat layers is 0.147 mm.

Q: And the “subcutaneous fat layers, Mean” value ([2]; sample 3, mean of 3 measurements)?
A: Its value is 0.1467 mm.

Q: And the subcutaneous fat layers ([2]; sample 3, measurement 1)?
A: The subcutaneous fat layers was 0.174 mm.

Q: And the subcutaneous fat layers ([2]; sample 3, measurement 2)?
A: Its subcutaneous fat layers is 0.153 mm.

Q: What about the subcutaneous fat layers ([2]; sample 3, measurement 3) of the same substance?
A: The subcutaneous fat layers was 0.113 mm.

Q: What about the “binding of BUBR1 to SAC proteins (BUB3 or CDC20)” value [3] of the same substance?
A: Its value is “did not block the binding of BUBR1 to other proteins such as PTBP1 or other SAC proteins (BUB3 or CDC20)”.

Q: And the “fibrosis, heart” value [4, 5]?
A: Its value is “reduced fibrosis of lamina propria in the esophagus and heart”.

Q: And the “fibrosis area/ total area, heart” value ([4]; 20 mg kg^–1 i.p., replicate 1)?
A: The value was 0.003612 and 0.3612%.

Q: And the “fibrosis area, heart” value ([4]; 20 mg kg^–1 i.p., replicate 1, total area 1.938)?
A: The value was 0.007.

Q: And the “fibrosis area, heart” value ([4]; 20 mg kg^–1 i.p., replicate 2, total area 1.976)?
A: The value was 0.002.

Q: What about the “fibrosis area, heart” value ([4]; 20 mg kg^–1 i.p., replicate 3, total area 2.43) of the same substance?
A: Its value is 0.004.
